According to US8314150B2, “Kinase protein binding inhibitors” (priority 2008, dated 2012):

Experiments:
paxillin phosphorylation = assay: Western blotting p-paxillin, Panc-1 cells; format: cell-based, human; conditions: 24 hours
Description: (§1) Cell Viability Assay—The Cells were treated with peptides for 24 hours at different peptide concentrations. The 3-(4,5-dimethylthiazol-2-yl)-5-(3-carboxymethoxyphenyl)-2-(4-sulfophenyl)-2H-tetrazolium compound from Promega Viability kit (Madison, Ill.) was added, and the cells were incubated at 37° C. for 1-2 hours. The optical density on 96-plate was analyzed with a microplate reader at 490 nm to determine cell viability. In addition, cells were stained with trypan blue after 24 hours of treatment with Y15 and the percent of cells that stained positive were determined with a hemacytometer. […] Then 2% SDS was added to the dried plated and OD at 590 nm was measured for detecting cell adhesion. […] Protein concentrations were determined using a Bio-Rad Kit. The boiled samples were loaded on Ready SDS-10% PAGE gels (Bio Rad, Inc) and used for Western blot analysis with the protein-specific antibody. […] Detachment Assay—Cells were plated with and without inhibitors for 24 hours, and detached and attached cells were counted in a hemocytometer. We calculated the percent of detachment by dividing the number of detached cells by the total number of cells. The percent of detached cells was calculated in three independent experiments. […] For each experiment 300 cells per treatment were counted. […]

BT474 cells = assay: Cell adhesion assay on collagen-coated plates, BT474; format: cell-based
Description: as §1

[1] = tested on: BT474 breast cancer cells; assay: MTT cell viability assay, BT474; format: cell-based; conditions: 24 hours
Description: as §1

[2] = tested on: Y118-paxillin phosphorylation; assay: Western blotting Y118-paxillin, BT474 cells; format: cell-based; conditions: 100 μM, 24 hours
Description: as §1

FAK-Y397 phosphorylation = assay: FAK-Y397 levels in Panc-1 tumors by Western blotting; format: in vivo, mice; conditions: 30 mg/kg, day 36, vs PBS
Description: as §1

[3] = tested on: tumor associated fibroblasts; assay: Trypan blue staining, tumor associated fibroblasts; format: cell-based; conditions: increasing doses, 24 hours
Description: as §1

[4] = tested on: Y397 phosphorylation of FAK; assay: Western blotting with Y397 FAK antibody, BT474 cells; format: cell-based
Description: Cell Viability Assay—The Cells were treated with peptides for 24 hours at different peptide concentrations. The 3-(4,5-dimethylthiazol-2-yl)-5-(3-carboxymethoxyphenyl)-2-(4-sulfophenyl)-2H-tetrazolium compound from Promega Viability kit (Madison, Ill.) was added, and the cells were incubated at 37° C. for 1-2 hours. The optical density on 96-plate was analyzed with a microplate reader at 490 nm to determine cell viability. In addition, cells were stained with trypan blue after 24 hours of treatment with Y15 and the percent of cells that stained positive were determined with a hemacytometer. Cell adhesion assay—The poly-L-Lysine or Collagen (5 μg/ml) coated 96-well plates were blocked with the blocking buffer (medium with 0.5% BSA) for 1 hour at 37 C. The cells were pre-treated with drugs for 3 hours and plated for adhesion at 4×10^5 cells. Cells were incubated at 37 C for 1 hour, fixed in 3.7% formaldehyde, washed in 0.1% BSA in PBS and stained with crystal violet (5 mg/ml in 2% ethanol) for 10 minutes. Then 2% SDS was added to the dried plated and OD at 590 nm was measured for detecting cell adhesion. Western Blotting—Cells or homogenized tumor samples were washed twice with cold 1×PBS and lysed on ice for 30 minutes in a buffer containing: 50 mM Tris-HCl (pH 7.5), 150 mM NaCl, 1% Triton-X, 0.5% NaDOC, 0.1% SDS, 5 mM EDTA, 50 mM NaF, 1 mM NaVO3, 10% glycerol and protease inhibitors: 10 μg/ml leupeptin, 10 μg/ml PMSF and 1 μg/ml aprotinin. The lysates were cleared by centrifugation at 10,000 rpm for 30 minutes at 4° C. Protein concentrations were determined using a Bio-Rad Kit. The boiled samples were loaded on Ready SDS-10% PAGE gels (Bio Rad, Inc) and used for Western blot analysis with the protein-specific antibody. Immunoblots were developed with chemiluminescence Renaissance reagent (NEN Life Science Products, Inc). Immunoprecipitation. Immunoprecipitation was performed according to the standard protocol. In brief, the pre-cleared lysates with equal amount of protein were incubated with 1 μg of primary antibody and 30 μl A/G agarose beads overnight at 4° C. The precipitates were washed with lysis buffer three times and re-suspended in 2× Laemmli buffer. The boiled samples were used for Western blotting, as described above. Detachment Assay—Cells were plated with and without inhibitors for 24 hours, and detached and attached cells were counted in a hemocytometer. We calculated the percent of detachment by dividing the number of detached cells by the total number of cells. The percent of detached cells was calculated in three independent experiments. Apoptosis Assay. Detached cells were collected and fixed in 3.7% formaldehyde in 1×PBS solution for the apoptosis assay. Detection of apoptosis was done with Hoechst 33342 staining. The percent of apoptotic cells was calculated as a ratio of apoptotic detached cells divided by the total number of cells in three independent experiments in several fields with the fluorescent microscope. For each experiment 300 cells per treatment were counted. In vitro Kinase Assay—10 μCi of [γ-^32P]-ATP in a kinase buffer (20 mM HEPES, pH 7.4, 5 mM MgCl2, 5 mM MnCl2, 0.1 mM Na3VO4 with 0.1 μg of purified FAK protein were incubated in a kinase buffer with 10 μCi of [γ-^32P]-ATP. The kinase reaction was performed for 5 minutes at room temperature and stopped by addition of 2× Laemmli buffer. Proteins were separated on a Ready SDS-10% PAGE gel, and the phosphorylated enolase was visualized by autoradiography. KinaseProfiler screening—Kinase specificity screening was performed with KinaseProfiler™ Service (Millipore) available on http://www.millipore.com/drugdiscovery/dd3/KinaseProfiler. The screening was performed with 1 μM Y15, 10 μM ATP and kinase substrates on 9 recombinant kinases according to Millipore protocol. Tumor Growth in Nude Mice—Female nude mice, 6 weeks old, were purchased from Harlan Laboratory. […]

[5] = tested on: Y397 phosphorylation of FAK; assay: Western blotting with Y397 antibody, time course in pancreatic tumor cells; format: cell-based, human; conditions: 100 μM
Description: as §1

pancreatic tumor cells = assay: Cell adhesion assay on collagen-coated plates, pancreatic tumor cells; format: cell-based, human
Description: as §1

Y397-FAK phosphorylation = assay: Y397-FAK levels in BT474 tumors (Western blotting, immunohistochemistry); format: in vivo; conditions: 30 mg/kg, vs untreated mice
Description: as §1

Panc-1 tumor cells = assay: Panc-1 subcutaneous tumor growth in nude mice; format: in vivo; conditions: 30 mg/kg each, daily intraperitoneal
Description: as §1

SMILES: Cl.Cl.Cl.Cl.Nc1cc(N)c(N)cc1N [Y15, 1,2,4,5-benzenetetraamine tetrahydrochloride]
- phosphorylation of FAK downstream substrate paxillin (paxillin phosphorylation): blocked
- cell adhesion (BT474 cells; 100 μM): significantly inhibited cell adhesion as TAE-226
- dose from which cell adhesion was significantly decreased (BT474 cells; collagen-coated plates): 50 µM
- dose at which viability started to decrease [1]: 10 µM
- doses at which viability was significantly blocked [1]: 50 to 100 µM
- phosphorylation of Y118-paxillin [2]: inhibited
- Y397 phosphorylation in tumors (FAK-Y397 phosphorylation): lower levels of Y397 phosphorylation
- cell viability (trypan blue) [3]: no significant decrease in viability
- total FAK level ([4]; 100 μM): down-regulates FAK
- treatment time enough to completely block Y397-phosphorylation ([4]; 100 μM): 8 h
- inhibition of Y397 phosphorylation compared with TAE226 ([4]; 100 μM dose, 24 hours): same inhibition as TAE226
- Y397 phosphorylation after 4 hours ([4]; 100 μM, 4 hours): did not significantly decreased Y397 phosphorylation
- Y397 phosphorylation of FAK ([4]; 100 μM, 24 hours): specifically inhibited Y397 phosphorylation of FAK
- dose with high inhibition of Y397 phosphorylation ([4]; 24 hours): 50 µM
- dose with maximal inhibition of Y397 phosphorylation ([4]; 24 hours): 100 µM
- treatment time enough to completely block Y397-phosphorylation [5]: 24 h
- Y397 phosphorylation after 6 hours or less ([5]; 6 hours or less): did not significantly decrease Y397 phosphorylation
- cell adhesion (pancreatic tumor cells; 50 μM): decreased adhesion in a similar fashion to 50 μM of TAE226
- dose from which cell adhesion was significantly decreased (pancreatic tumor cells; collagen-coated plates): 10 µM
- Y397-FAK phosphorylation in tumors (Y397-FAK phosphorylation): less Y397-FAK phosphorylation
- total FAK levels in tumors (Y397-FAK phosphorylation): the same
- tumor growth (Panc-1 tumor cells): inhibited tumor growth even better than gemcitabine alone
